Data taken from patent US9243035B2, “Peptides effective in the treatment of conditions requiring the removal or destruction of cells” (NYMOX CORPORATION, priority 2013, dated 2016).
No end group written: not given here.

Assays:
[1] = tested on: tissue at sites of injection (liver, prostate, extremity skeletal muscle); test: Injection of peptide into liver, prostate and extremity skeletal muscle of rats, histopathology and prostate volume at 72 hours; type: in vivo, Sprague-Dawley male rats; set-up: key to Histological Changes of Cell Death at 72 Hours: −: Absent; +: Present, Minimal; ++: Present, Moderate; +++: Present, Moderate and Diffuse; ++++: Present, Diffuse and Extensive; conditions: rat; for reduction in prostate volume compared to controls: 100 to 400 μL of 1 mg/mL in saline, sacrificed at 72 hours, average; for Histological Changes of Cell Death at 72 Hours: 72 hours after injection; for histopathological effect on tissue at sites of injection: liver, prostate, muscle, 72 hours
Description: After open laparotomy under general anesthesia, 8 normal 3 month old Sprague-Dawley male rats were injected in liver and in prostate, and in extremity skeletal muscle, with peptide NYMAP1385 in saline in quantities of 100 to 400 μL at a concentration of 1 mg/mL delivered from plastic syringes through stainless steel 26 gauge needles.
The individual foci of infiltration were excised, fixed in 10% formalin, embedded in paraffin, and stained and examined by standard histopathological methods. For each animal the entire prostate gland was embedded and sectioned. All stained sections were examined histologically and measured. For each prostate at least 4 histological sections were examined, and for each histological section two cross-sectional diameters (D) at 90° from each other were measured (total of ≧4 measurements per prostate). The mean diameter from these measurements for each prostate was used to estimate volume according to V=4/3*π(D/2)^3 […]
(§1) Histological changes were assessed on the following scale: −Absent • +Present, Minimal • ++Present, Moderate • +++Present, Moderate and Diffuse • ++++Present, Diffuse and Extensive

[2] = tested on: rat prostate; test: Intraprostatic infusion of peptide in rats, histology and prostate volume after 7 days; type: in vivo, Sprague-Dawley rats; set-up: key to Histological Changes of Cell Death at 7 Days: −: Absent; +: Present, Minimal; ++: Present, Moderate; +++: Present, Moderate and Diffuse; ++++: Present, Diffuse and Extensive; conditions: for histological effect on prostate at sites of injection: rat prostate, 7 days; for Histological Changes of Cell Death at 7 Days / reduction in prostate volume compared to controls: rat; for Histological Changes of Cell Death at 7 Days: 7 days after intraprostatic injection; for reduction in prostate volume compared to controls: intraprostatic, 300 μl of 1 mg/mL in PBS pH 7.4, sacrificed after 7 days, average
Description: Seven normal male 300 gram weight Sprague-Dawley rats were given general anesthesia and given peptide NYMAP1385 by intraprostatic infusion. The injections consisted of 300 μl of peptide NYMAP1385 1 mg/mL in PBS pH 7.4. […] Rats were painlessly sacrificed after 7 days. Prostate glands were dissected, fixed in 10% buffered formalin for 24 hours, embedded in paraffin, sectioned, and stained with H & E. For each animal the entire prostate gland was embedded and sectioned. All stained sections were examined histologically. For each animal the entire prostate gland was embedded and sectioned. All stained sections were examined histologically and measured. For each prostate at least 2 histological sections were examined, and for each histological section two cross-sectional diameters (D) at 90° from each other were measured (total of ≧4 measurements per prostate). The mean diameter from these measurements for each prostate was used to estimate volume according to V=4/3*π*(D/2)^3
Eight normal male 300 gram Sprague-Dawley rats were injected in the prostate as in the above Example 2, except they were injected with peptide NYMAP13134. Rats were painlessly sacrificed after 7 days and their prostate glands were examined as in Example 2. For each animal the entire prostate gland was embedded and sectioned. All stained sections were examined histologically and measured. For each prostate at least 2 histological sections were examined, and for each histological section two cross-sectional diameters (D) at 90° from each other were measured (total of ≧4 measurements per prostate). The mean diameter from these measurements for each prostate was used to estimate volume according to V=4/3*π*(D/2)^3
as §1

Sequence	reduction in prostate volume compared to controls [1]	Histological Changes of Cell Death at 72 Hours [1]	histopathological effect on tissue at sites of injection [1]	histological effect on prostate at sites of injection [2]	Histological Changes of Cell Death at 7 Days [2]	reduction in prostate volume compared to controls [2]
FHDLKKHCIK [NYMAP13134]	72.5%	+++	cell death and necrosis of tissue at the injection sites	significant cell loss and atrophy in the prostate	++++	75.2%
IDLLQGRTRNRC [NYMAP1385]	57.8%	++++	variable amounts of apoptosis and necrosis of tissue at the injection sites	necrosis of tissue at the injection sites with loss of glandular epithelium, flattening and atrophy	++	44.8%
